Test results published in patent publication US10112925B2, “Methods for the preparation of charged crosslinkers” (IMMUNOGEN, INC., priority 2010, dated 2018).

Key:
[1] = Hygroscopicity of solid forms of compound (V), qualitative comparison; assay type: physicochemical; details: solid form; amorphous solid made according to US 20090274713 as comparator
Source text: In one embodiment, the invention is directed to new crystalline forms of the compound of formula (V), e.g., Crystalline Forms 1, 2a, 2b and 3 as described below.

[2] = Gravimetric vapour sorption (GVS) moisture sorption isotherm; assay type: physicochemical; details: 25° C.; for weight gain, adsorption profile (GVS): between 40% RH and 90% RH; for weight loss, desorption profile (GVS): between 90% RH and 0% RH
Description: Sorption isotherms were obtained using a SMS DVS Intrinsic moisture sorption analyser, controlled by DVS Intrinsic Control software v1.0.0.30. The sample temperature was maintained at 25° C. by the instrument controls. The humidity was controlled by mixing streams of dry and wet nitrogen, with a total flow rate of 200 ml/min. The relative humidity was measured by a calibrated Rotronic probe (dynamic range of 1.0-100% RH), located near the sample. The weight change, (mass relaxation) of the sample as a function of % RH was constantly monitored by the microbalance (accuracy ±0.005 mg).
Typically 10 mg of sample was placed in a tared mesh stainless steel basket under ambient conditions. The sample was loaded and unloaded at 40% RH and 25° C. (typical room conditions). A moisture sorption isotherm was performed as outlined below (2 scans giving 1 complete cycle). The standard isotherm was performed at 25° C. at 10% RH intervals over a 0-90% RH range. Data analysis was undertaken in Microsoft Excel using DVS Analysis Suite v6.0.0.7.

O=C(ON1C(=O)CCC1=O)C(CCSSc1ccccn1)S(=O)(=O)O (stereo not drawn) [Compound of formula (V), N-succinimidyl 4-(2′-pyridyldithio)-2-sulfobutanoate]
hygroscopicity [1]: highly hygroscopic

O=C(ON1C(=O)CCC1=O)C(CCSSc1ccccn1)S(=O)(=O)O (stereo not drawn) [Crystalline Form 1, N-succinimidyl 4-(2′-pyridyldithio)-2-sulfobutanoate]
hygroscopicity [1]: significantly less hygroscopic than the amorphous solid
weight gain, adsorption profile (GVS) [2]: 1.6%
weight loss, desorption profile (GVS) [2]: 1.9%

O=C(ON1C(=O)CCC1=O)C(CCSSc1ccccn1)S(=O)(=O)O (stereo not drawn) [Crystalline Form 2a, N-succinimidyl 4-(2′-pyridyldithio)-2-sulfobutanoate]
hygroscopicity [1]: significantly less hygroscopic than the amorphous solid
weight gain, adsorption profile (GVS) [2]: 1.8%
weight loss, desorption profile (GVS) [2]: 2.4%

O=C(ON1C(=O)CCC1=O)C(CCSSc1ccccn1)S(=O)(=O)O (stereo not drawn) [Crystalline Form 2b, N-succinimidyl 4-(2′-pyridyldithio)-2-sulfobutanoate]
hygroscopicity [1]: significantly less hygroscopic than the amorphous solid

O=C(ON1C(=O)CCC1=O)C(CCSSc1ccccn1)S(=O)(=O)O (stereo not drawn) [Crystalline Form 3, N-succinimidyl 4-(2′-pyridyldithio)-2-sulfobutanoate]
hygroscopicity [1]: significantly less hygroscopic than the amorphous solid
weight gain, second adsorption profile (GVS) ([2]; between 0% RH and 40% RH): 0.4%
weight gain, adsorption profile (GVS) [2]: 25%
weight loss, desorption profile (GVS) [2]: 29.4%
